Laboratory results from ChEMBL document CHEMBL1795342, “Discovery of S1P agonists with a dihydronaphthalene scaffold” (Bioorg Med Chem Lett, 2011).

Key:
Mus musculus = assay: Immunomodulatory activity in po dosed mouse assessed as reduction in peripheral lymphocyte count measured at 4 hrs; type: functional
[1] = target: Sphingosine 1-phosphate receptor 1 (Homo sapiens, UniProt P21453); assay: Agonist activity at human S1P1 receptor expressed in CHO cells assessed as intracellular calcium levels; type: functional, cell-based
[2] = target: Sphingosine 1-phosphate receptor 3 (Homo sapiens, UniProt Q99500); assay: Agonist activity at human S1P3 receptor expressed in CHO cells assessed as intracellular calcium levels; type: functional, cell-based
[3] = AUC (infinity) in rat at 1 mg/kg, po; type: ADME, organism-based; design: time infinity, dose 1 mg/kg, route oral; settings: plasma
[4] = Half life in rat at 1 mg/kg, iv; type: ADME, organism-based; design: dose 1 mg/kg, route intravenous; settings: in vivo
[5] = Total clearance in rat at 1 mg/kg, iv; type: ADME, organism-based; design: dose 1 mg/kg, route intravenous; settings: in vivo
[6] = Bioavailability in rat at 1 mg/kg, iv; type: ADME, organism-based; settings: in vivo
[7] = Half life in rat at 1 mg/kg, po; type: ADME, organism-based; design: dose 1 mg/kg, route oral; settings: in vivo
[8] = AUC (infinity) in rat at 1 mg/kg, iv; type: ADME, organism-based; design: time infinity, dose 1 mg/kg, route intravenous; settings: plasma
[9] = Cmax in rat at 1 mg/kg, po; type: ADME, organism-based; design: dose 1 mg/kg, route oral; settings: in vivo
[10] = Volume of distribution at steady state in rat at 1 mg/kg, iv; type: ADME, organism-based; design: dose 1 mg/kg, route intravenous; settings: in vivo, read-out: Vdss

Sequence of Sphingosine 1-phosphate receptor 3 (Q99500 whole entry): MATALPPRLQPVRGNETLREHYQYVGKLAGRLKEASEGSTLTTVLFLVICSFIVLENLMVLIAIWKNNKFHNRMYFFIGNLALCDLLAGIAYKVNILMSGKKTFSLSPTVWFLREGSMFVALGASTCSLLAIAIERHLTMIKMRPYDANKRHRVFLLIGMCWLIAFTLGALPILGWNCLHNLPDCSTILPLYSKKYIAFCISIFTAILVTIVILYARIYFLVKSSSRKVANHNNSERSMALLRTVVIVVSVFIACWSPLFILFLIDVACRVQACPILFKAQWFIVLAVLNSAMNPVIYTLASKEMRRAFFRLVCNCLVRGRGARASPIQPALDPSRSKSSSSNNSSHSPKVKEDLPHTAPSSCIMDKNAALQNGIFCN
Sequence of Sphingosine 1-phosphate receptor 1 (P21453 whole entry): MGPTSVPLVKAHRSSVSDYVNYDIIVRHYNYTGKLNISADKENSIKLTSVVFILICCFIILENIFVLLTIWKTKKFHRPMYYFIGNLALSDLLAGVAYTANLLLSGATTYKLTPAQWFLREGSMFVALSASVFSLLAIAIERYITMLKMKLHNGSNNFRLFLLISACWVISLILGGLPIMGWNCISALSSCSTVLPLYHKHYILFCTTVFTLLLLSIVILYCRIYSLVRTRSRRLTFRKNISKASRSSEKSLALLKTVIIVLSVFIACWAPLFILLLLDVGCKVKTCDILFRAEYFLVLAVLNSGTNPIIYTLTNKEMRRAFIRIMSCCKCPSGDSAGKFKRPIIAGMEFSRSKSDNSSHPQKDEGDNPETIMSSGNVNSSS

| SMILES | EC50 [1] [nM] | EC50 [2] [nM] | other results |
| --- | --- | --- | --- |
| O=C(O)CCNC/C=C/c1ccc(OCCCc2ccccc2)cc1 | – | – | ED50 (Mus musculus): 4.6 mg/kg |
| O=C(O)CCNC/C=C/c1ccc(OCCCCc2ccccc2)cc1 | 120 | > 10000 | – |
| O=C(O)CCNC/C=C/c1ccc(OCCCCCc2ccccc2)cc1 | 150 | 6700 | – |
| Cc1cc(/C=C/CNCCC(=O)O)ccc1OCCCCc1ccccc1 | 280 | > 10000 | – |
| O=C(O)CCNC/C=C/c1ccc(OCCCCc2ccccc2)cc1Cl | 24 | 7200 | – |
| COc1cc(OCCCCc2ccccc2)ccc1/C=C/CNCCC(=O)O | 230 | > 10000 | – |
| Cc1cc(OCCCCc2ccccc2)ccc1/C=C/CNCCC(=O)O | 36 | > 10000 | – |
| O=C(O)C1CN(C/C=C/c2ccc(OCCCc3ccccc3)cc2)C1 | 43 | 3300 | – |
| O=C(O)C1CCN(C/C=C/c2ccc(OCCCc3ccccc3)cc2)CC1 | 2400 | > 10000 | – |
| C/C(=C\c1ccc(OCCCCc2ccccc2)cc1)CNCCC(=O)O | 10 | 3000 | – |
| O=C(O)CCNCC1=Cc2ccc(OCCCCc3ccccc3)cc2CC1 | 57 | 7800 | – |
| CC1=C(CNCCC(=O)O)CCc2cc(OCCCCc3ccccc3)ccc21 | 11 | > 10000 | AUC(0-inf) [3]: 2400 ng·h/mL; half-life [4]: 5.2 h; ED50 (Mus musculus): 0.34 mg/kg; clearance [5]: 3.1 mL/min/kg; bioavailability [6]: 44%; half-life [7]: 6.9 h; AUC(0-inf) [8]: 5400 ng·h/mL; Cmax [9]: 168 ng/mL; Vd [10]: 0.86 L/kg |
| CC1=C(CN2CC(C(=O)O)C2)CCc2cc(OCCCCc3ccccc3)ccc21 | 2.9 | > 10000 | AUC(0-inf) [3]: 3800 ng·h/mL; half-life [4]: 11 h; ED50 (Mus musculus): 0.16 mg/kg; clearance [5]: 4 mL/min/kg; bioavailability [6]: 85%; half-life [7]: 16.7 h; AUC(0-inf) [8]: 4400 ng·h/mL; Cmax [9]: 181 ng/mL; Vd [10]: 2.86 L/kg |
| CC1=C(CN2CC(C(=O)O)C2)CCCc2cc(OCCCCc3ccccc3)ccc21 | 1300 | > 10000 | – |
